# Laboratory results published in BindingDB's records for doi:10.1021/acs.biochem.6b00446 (Avanti Polar Lipids, 2016).
# Values joined by “and” are separate entries in the source; they are usually repeats but may differ in a detail not shown here. Equal values may be shown once.
# Target: T1, Fatty acid-binding protein, liver (Mus musculus, UniProt P12710)
# T1 sequence (P12710 whole entry): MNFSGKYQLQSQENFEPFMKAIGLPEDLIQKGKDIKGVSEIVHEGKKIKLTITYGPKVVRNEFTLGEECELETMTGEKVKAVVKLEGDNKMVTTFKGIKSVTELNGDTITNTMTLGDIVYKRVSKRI
# Test: FABP1 Fluorescent Ligand Displacement Assay
# Text: Data were corrected for the following blanks/controls: protein only, fluorescent ligand only, fluorescent ligand with anincreasing amount of nonfluorescent ligand, and photobleaching.
row,SMILES,Ki
1,CCCCCCCC/C=C\CCCCCCCC(=O)OC(CO)CO [2-Oleoylmonoglycerol (2-OG)],40 nM
2,CCCCC/C=C\C/C=C\C/C=C\C/C=C\CCCC(=O)OC(CO)CO,61 nM
3,CCCCC/C=C\C/C=C\C/C=C\C/C=C\CCCC(=O)Nc1ccc(O)cc1,29 nM
4,CCCCCn1cc(C(=O)c2cccc3ccccc23)c2ccccc21 [JWH-018],58 nM
5,"CCCCCc1cc(O)c2c(c1)OC(C)(C)[C@@H]1CCC(C)=C[C@@H]21 [(10R,10aR)-6,6,9-Trimethyl-3-pentyl-6a,7,8,10a-tetrahydro-6H-benzo[c]chromen-1-ol]",1000 nM
6,"C=C(C)[C@@H]1CCC(C)=C[C@H]1c1c(O)cc(CCCCC)cc1O [2-(6-Isopropenyl-3-methyl-cyclohex-2-enyl)-5-pentyl-benzene-1,3-diol (Cannabidiol)]",167 nM
7,Cc1ccc2c(c1)-c1c(ssc1=S)C(C)(C)N2C(=O)CC(C)C [SCPI4],33 nM
8,CC(=O)Nc1ccc(Nc2nc(-c3ccc(Cl)c(Cl)c3)cs2)cc1 [SCPI1],350 nM
9,"CCCCCCC(C)(C)c1cc(O)c2c(c1)OC(C)(C)[C@@H]1CC=C(CO)C[C@@H]21 [(6aR,10aR)-3-(1,1-dimethyl-heptyl)-9-hydroxymethyl-6,6-dimethyl-6a,7,10,10a-tetrahydro-6H-benzo[c]chromen-1-ol]",850 nM
10,CCCCCCC(C)(C)c1ccc([C@@H]2C[C@H](O)CC[C@H]2CCCO)c(O)c1 [ChEMBL_75020],990 nM
11,COc1cc([N+](=O)[O-])cc2c1NC(c1ccc(Br)cc1)=NO2 [SCPI3],900 nM
12,CCCCCCCC/C=C\CCCCCCCC(=O)NCCO [Oleamide MEA],43 nM
13,CCC=CCC=CCC=CCC=CCC=CCC=CCCC(=O)NCCO [Docosahexaenoylethanolamide (DHEA)],163 nM
14,CCCCCCCC/C=C\CCCCCCCC(=O)N[C@H](CO)Cc1ccc(O)cc1 [OMDM1],40 nM
15,CCCCCCCCCCCCCCCC(=O)OC(CO)CO [2-Palmitoylmonoglycerol (2-PG)],70 nM
16,Cc1c(C(=O)NN2CCCCC2)nn(-c2ccc(Cl)cc2Cl)c1-c1ccc(Cl)cc1 [SR141716],2000 nM
17,"CCc1c(-c2ccccc2)c(-c2ccccc2)nn1-c1ccccc1-c1cccc(OCC(=O)O)c1 [((2'-(5-ETHYL-3,4-DIPHENYL-1H-PYRAZOL-1-YL)-3-BIPHENYLYL)OXY)ACETIC ACID]",21 nM and 52 nM
18,CCCCCCCC/C=C\CCCCCCCC(=O)N[C@@H](CO)Cc1ccc(O)cc1 [OMDM2],40 nM
19,CCCCCC=CCC=CCC=CCC=CCCCC(=O)Nc1ccc(O)cc1C [VDM11],37 nM
